Source: ChEMBL document CHEMBL5291721, “A preclinical secondary pharmacology resource illuminates target-adverse drug reaction associations of marketed drugs” (Nat Commun, 2023)

Key:
[1] = molecular target: Epidermal growth factor receptor (Homo sapiens, UniProt P00533); format: functional
Estrogen receptor = molecular target: T1, Estrogen receptor (Homo sapiens, UniProt P03372); format: functional
T1 sequence (P03372 whole entry): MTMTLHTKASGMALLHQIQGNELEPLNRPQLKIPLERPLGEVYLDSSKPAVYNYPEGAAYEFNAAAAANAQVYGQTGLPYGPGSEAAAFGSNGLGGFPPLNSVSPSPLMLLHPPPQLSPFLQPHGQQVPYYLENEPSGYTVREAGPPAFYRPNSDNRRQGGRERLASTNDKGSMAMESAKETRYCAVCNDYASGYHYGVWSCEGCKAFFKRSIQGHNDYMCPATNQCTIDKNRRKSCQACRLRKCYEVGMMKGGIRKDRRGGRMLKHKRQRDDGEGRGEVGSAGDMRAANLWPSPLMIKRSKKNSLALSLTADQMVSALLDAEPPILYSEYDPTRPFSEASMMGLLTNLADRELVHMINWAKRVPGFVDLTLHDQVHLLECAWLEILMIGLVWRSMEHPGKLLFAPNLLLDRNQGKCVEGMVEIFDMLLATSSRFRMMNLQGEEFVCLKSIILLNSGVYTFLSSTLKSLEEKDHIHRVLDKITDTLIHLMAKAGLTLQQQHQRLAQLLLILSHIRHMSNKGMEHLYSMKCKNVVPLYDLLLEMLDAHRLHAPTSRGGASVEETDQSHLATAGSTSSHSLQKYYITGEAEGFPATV

Thromboxane A2 receptor [2] = molecular target: T2, Thromboxane A2 receptor (Homo sapiens, UniProt P21731); format: functional
T2 sequence (P21731 whole entry): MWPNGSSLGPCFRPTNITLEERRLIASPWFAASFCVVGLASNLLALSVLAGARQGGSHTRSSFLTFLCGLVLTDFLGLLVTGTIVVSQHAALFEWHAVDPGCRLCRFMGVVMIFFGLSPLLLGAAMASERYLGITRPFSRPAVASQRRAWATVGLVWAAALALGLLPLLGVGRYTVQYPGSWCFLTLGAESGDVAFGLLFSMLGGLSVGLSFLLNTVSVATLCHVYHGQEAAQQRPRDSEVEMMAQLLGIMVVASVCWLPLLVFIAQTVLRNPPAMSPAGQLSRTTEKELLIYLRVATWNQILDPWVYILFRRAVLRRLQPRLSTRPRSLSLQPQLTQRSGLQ

[3] = molecular target: Vascular endothelial growth factor receptor 2 (Homo sapiens, UniProt P35968); format: functional
Chain of Vascular endothelial growth factor receptor 2 (P35968 whole entry): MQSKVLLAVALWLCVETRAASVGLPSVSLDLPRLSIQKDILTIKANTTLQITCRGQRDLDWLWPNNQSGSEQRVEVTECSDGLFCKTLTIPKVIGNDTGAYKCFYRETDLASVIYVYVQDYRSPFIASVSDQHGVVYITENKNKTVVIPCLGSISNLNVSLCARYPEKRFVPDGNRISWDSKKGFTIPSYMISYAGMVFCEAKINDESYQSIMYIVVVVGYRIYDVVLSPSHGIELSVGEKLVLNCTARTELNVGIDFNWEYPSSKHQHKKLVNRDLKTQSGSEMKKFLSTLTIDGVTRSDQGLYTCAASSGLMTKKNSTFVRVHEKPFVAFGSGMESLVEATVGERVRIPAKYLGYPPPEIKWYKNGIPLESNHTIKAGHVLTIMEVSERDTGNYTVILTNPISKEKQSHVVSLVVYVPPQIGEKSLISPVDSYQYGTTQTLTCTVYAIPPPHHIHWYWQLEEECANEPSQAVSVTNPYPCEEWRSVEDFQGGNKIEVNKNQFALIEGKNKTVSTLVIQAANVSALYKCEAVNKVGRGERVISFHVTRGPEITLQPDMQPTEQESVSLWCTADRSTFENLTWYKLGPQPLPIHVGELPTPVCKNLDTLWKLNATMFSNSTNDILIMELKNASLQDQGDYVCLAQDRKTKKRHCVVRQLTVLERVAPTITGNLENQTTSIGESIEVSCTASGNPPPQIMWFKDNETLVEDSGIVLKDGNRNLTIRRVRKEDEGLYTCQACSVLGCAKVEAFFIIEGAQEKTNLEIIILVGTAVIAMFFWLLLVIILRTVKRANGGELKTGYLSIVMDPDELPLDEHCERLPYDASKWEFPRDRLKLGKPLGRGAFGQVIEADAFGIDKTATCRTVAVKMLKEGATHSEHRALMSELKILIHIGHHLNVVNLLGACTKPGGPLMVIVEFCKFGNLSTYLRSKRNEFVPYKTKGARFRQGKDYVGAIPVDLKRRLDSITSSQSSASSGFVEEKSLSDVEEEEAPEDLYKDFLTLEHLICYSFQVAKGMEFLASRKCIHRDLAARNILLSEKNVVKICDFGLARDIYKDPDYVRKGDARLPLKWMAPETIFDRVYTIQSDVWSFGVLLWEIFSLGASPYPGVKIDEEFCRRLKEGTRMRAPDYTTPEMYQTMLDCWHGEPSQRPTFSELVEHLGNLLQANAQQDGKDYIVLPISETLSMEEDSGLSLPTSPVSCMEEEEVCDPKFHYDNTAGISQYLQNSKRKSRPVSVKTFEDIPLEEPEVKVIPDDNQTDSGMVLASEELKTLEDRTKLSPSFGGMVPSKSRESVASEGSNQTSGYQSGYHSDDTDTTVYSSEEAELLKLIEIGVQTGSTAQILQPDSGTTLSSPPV

Thromboxane A2 receptor [4] = molecular target: T2, Thromboxane A2 receptor; format: functional, cell-based
Further: assay procedure not described here.

Chain of Epidermal growth factor receptor (P00533 whole entry): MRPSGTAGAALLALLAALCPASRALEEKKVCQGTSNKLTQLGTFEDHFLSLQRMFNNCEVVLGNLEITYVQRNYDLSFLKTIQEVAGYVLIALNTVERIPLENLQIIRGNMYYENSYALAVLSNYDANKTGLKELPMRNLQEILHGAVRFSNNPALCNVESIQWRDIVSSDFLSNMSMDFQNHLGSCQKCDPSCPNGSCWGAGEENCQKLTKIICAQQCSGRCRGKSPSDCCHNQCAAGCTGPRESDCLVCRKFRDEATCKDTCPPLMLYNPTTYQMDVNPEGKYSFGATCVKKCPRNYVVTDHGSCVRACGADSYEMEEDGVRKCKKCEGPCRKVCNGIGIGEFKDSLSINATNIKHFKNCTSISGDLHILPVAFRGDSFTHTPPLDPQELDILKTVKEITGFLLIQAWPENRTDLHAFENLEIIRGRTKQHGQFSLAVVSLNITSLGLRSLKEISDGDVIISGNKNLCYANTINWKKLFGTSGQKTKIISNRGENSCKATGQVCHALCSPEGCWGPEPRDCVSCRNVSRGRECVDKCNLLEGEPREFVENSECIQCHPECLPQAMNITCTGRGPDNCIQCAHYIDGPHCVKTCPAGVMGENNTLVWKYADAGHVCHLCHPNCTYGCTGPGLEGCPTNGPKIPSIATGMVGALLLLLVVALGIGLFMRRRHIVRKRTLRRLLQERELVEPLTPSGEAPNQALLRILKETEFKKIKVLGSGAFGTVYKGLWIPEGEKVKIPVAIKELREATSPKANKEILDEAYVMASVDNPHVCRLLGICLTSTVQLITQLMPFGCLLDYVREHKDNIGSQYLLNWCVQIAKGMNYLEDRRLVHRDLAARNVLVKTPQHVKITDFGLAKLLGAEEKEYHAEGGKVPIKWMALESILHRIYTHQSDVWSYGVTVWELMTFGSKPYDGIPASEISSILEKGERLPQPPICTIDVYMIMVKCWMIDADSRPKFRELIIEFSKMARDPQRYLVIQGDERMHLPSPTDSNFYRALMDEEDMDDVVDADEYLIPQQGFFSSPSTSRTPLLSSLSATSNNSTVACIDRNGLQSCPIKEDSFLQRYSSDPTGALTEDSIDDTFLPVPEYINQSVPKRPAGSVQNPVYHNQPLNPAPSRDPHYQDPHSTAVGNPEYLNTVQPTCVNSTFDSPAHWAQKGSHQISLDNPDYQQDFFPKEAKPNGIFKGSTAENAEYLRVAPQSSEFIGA

SMILES	AC50 [1]	AC50 (Estrogen receptor)	AC50 (Thromboxane A2 receptor [2])	AC50 [3]	AC50 (Thromboxane A2 receptor [4])
CO/N=C(\C(=O)N[C@@H]1C(=O)N2C(C(=O)[O-])=C(C[N+]3(C)CCCC3)CS[C@H]12)c1csc(N)n1	> 300 µM	54 µM	> 300 µM	> 300 µM	> 300 µM
CC(C)Cc1ccc(CC(=O)O)cc1 [IBUFENAC]	> 30 µM	–	> 30 µM	> 30 µM	> 30 µM
CC(C)NNC(=O)c1ccncc1 [IPRONIAZID]	> 30 µM	> 30 µM	> 30 µM	> 30 µM	> 30 µM
